Patent US10213433B2 (AbbVie Inc., priority 2010, dated 2019)
pKi: −log10 of the molar value.

molecular target: Bcl-2 protein (Homo sapiens (Human), UniProt P10415); assay: Bcl-2 binding TR-FRET (Time-Resolved Fluorescence-Resonance-Energy-Transfer) assay; details: inhibition constant for binding to Bcl-2 protein
From the text: The smaller the Ki value, the greater is the binding affinity.

Chain of Bcl-2 protein (P10415 whole entry): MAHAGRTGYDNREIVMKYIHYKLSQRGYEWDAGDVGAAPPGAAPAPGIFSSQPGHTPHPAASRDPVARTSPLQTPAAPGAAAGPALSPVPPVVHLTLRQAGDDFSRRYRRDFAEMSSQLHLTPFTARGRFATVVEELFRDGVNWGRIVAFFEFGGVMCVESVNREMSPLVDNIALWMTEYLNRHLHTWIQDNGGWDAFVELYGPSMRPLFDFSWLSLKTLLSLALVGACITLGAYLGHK

SMILES	pKi
CC1(C)CCC(CN2CCN(c3ccc(C(=O)NS(=O)(=O)c4ccc(NCCC#N)c([N+](=O)[O-])c4)c(Oc4cnc5[nH]ccc5c4)c3)CC2)=C(c2ccc(Cl)cc2)C1 [Compound 62, 4-(4-{[2-(4-chlorophenyl)-4,4-dimethylcyclohex-1-en-1-yl]methyl}piperazin-1-yl)-N-({4-[(2-cyanoethyl)amino]-3-nitrophenyl}sulfonyl)-2-(1H-pyrrolo[2,3-b]pyridin-5-yloxy)benzamide]	> 11.00
CN1CCC(CNc2ccc(S(=O)(=O)NC(=O)c3ccc(N4CCN(CC5=C(c6ccc(Cl)cc6)CC(C)(C)CC5)CC4)cc3Oc3cnc4[nH]ccc4c3)cc2[N+](=O)[O-])CC1 [Compound 65, 4-(4-{[2-(4-chlorophenyl)-4,4-dimethylcyclohex-1-en-1-yl]methyl}piperazin-1-yl)-N-[(4-{[(1-methylpiperidin-4-yl)methyl]amino}-3-nitrophenyl)sulfonyl]-2-(1H-pyrrolo[2,3-b]pyridin-5-yloxy)benzamide]	> 11.00
CC1(C)CCC(CN2CCN(c3ccc(C(=O)NS(=O)(=O)c4ccc(NCC5COCCN5)c([N+](=O)[O-])c4)c(Oc4cnc5[nH]ccc5c4)c3)CC2)=C(c2ccc(Cl)cc2)C1 (stereo not shown) [Compound 66, 4-(4-{[2-(4-chlorophenyl)-4,4-dimethylcyclohex-1-en-1-yl]methyl}piperazin-1-yl)-N-({4-[(morpholin-3-ylmethyl)amino]-3-nitrophenyl}sulfonyl)-2-(1H-pyrrolo[2,3-b]pyridin-5-yloxy)benzamide]	> 11.00
CN1CCN(Nc2ccc(S(=O)(=O)NC(=O)c3ccc(N4CCN(CC5=C(c6ccc(Cl)cc6)CC(C)(C)OC5)CC4)cc3Oc3cnc4[nH]ccc4c3)cc2[N+](=O)[O-])CC1 [Compound 67, 4-(4-{[4-(4-chlorophenyl)-6,6-dimethyl-5,6-dihydro-2H-pyran-3-yl]methyl}piperazin-1-yl)-N-({4-[(4-methylpiperazin-1-yl)amino]-3-nitrophenyl}sulfonyl)-2-(1H-pyrrolo[2,3-b]pyridin-5-yloxy)benzamide]	> 11.00
O=C(NS(=O)(=O)c1ccc(OCC2(F)CCOCC2)c([N+](=O)[O-])c1)c1ccc(N2CCN(CC3=C(c4ccc(Cl)cc4)CCC4(CCCC4)C3)CC2)cc1Oc1cnc2[nH]ccc2c1 [Compound 73, 4-(4-{[8-(4-chlorophenyl)spiro[4.5]dec-7-en-7-yl]methyl}piperazin-1-yl)-N-({4-[(4-fluorotetrahydro-2H-pyran-4-yl)methoxy]-3-nitrophenyl}sulfonyl)-2-(1H-pyrrolo[2,3-b]pyridin-5-yloxy)benzamide]	> 11.00
CC1(C)CCC(c2ccc(Cl)cc2)=C(CN2CCN(c3ccc(C(=O)NS(=O)(=O)c4ccc(NCC5CCOCC5)c([N+](=O)[O-])c4)c(Oc4cnc5[nH]ccc5c4)c3)CC2)C1 [Compound 75, 4-(4-{[2-(4-chlorophenyl)-5,5-dimethylcyclohex-1-en-1-yl]methyl}piperazin-1-yl)-N-({3-nitro-4-[(tetrahydro-2H-pyran-4-ylmethyl)amino]phenyl}sulfonyl)-2-(1H-pyrrolo[2,3-b]pyridin-5-yloxy)benzamide]	> 11.00
CC1(C)CCC(CN2CCN(c3ccc(C(=O)NS(=O)(=O)c4ccc(OCC5COCCN5)c([N+](=O)[O-])c4)c(Oc4cnc5[nH]ccc5c4)c3)CC2)=C(c2ccc(Cl)cc2)C1 (stereo not shown) [Compound 78, 4-(4-{[2-(4-chlorophenyl)-4,4-dimethylcyclohex-1-en-1-yl]methyl}piperazin-1-yl)-N-{[4-(morpholin-3-ylmethoxy)-3-nitrophenyl]sulfonyl}-2-(1H-pyrrolo[2,3-b]pyridin-5-yloxy)benzamide]	> 11.00
O=C(NS(=O)(=O)c1ccc(NCC2CCOCC2)c([N+](=O)[O-])c1)c1ccc(N2CCN(CC3=C(c4ccc(Cl)cc4)CCC4(CCCC4)C3)CC2)cc1Oc1cnc2[nH]ccc2c1 [Compound 79, 4-(4-{[8-(4-chlorophenyl)spiro[4.5]dec-7-en-7-yl]methyl}piperazin-1-yl)-N-({3-nitro-4-[(tetrahydro-2H-pyran-4-ylmethyl)amino]phenyl}sulfonyl)-2-(1H-pyrrolo[2,3-b]pyridin-5-yloxy)benzamide]	> 11.00
CC1(C)CCC(CN2CCN(c3ccc(C(=O)NS(=O)(=O)c4ccc(NC5CCN(S(C)(=O)=O)CC5)c([N+](=O)[O-])c4)c(Oc4cnc5[nH]ccc5c4)c3)CC2)=C(c2ccc(Cl)cc2)C1 [Compound 80, 4-(4-{[2-(4-chlorophenyl)-4,4-dimethylcyclohex-1-en-1-yl]methyl}piperazin-1-yl)-N-[(4-{[1-(methylsulfonyl)piperidin-4-yl]amino}-3-nitrophenyl)sulfonyl]-2-(1H-pyrrolo[2,3-b]pyridin-5-yloxy)benzamide]	> 11.00
CC1(C)CCC(CN2CCN(c3ccc(C(=O)NS(=O)(=O)c4ccc(NC5CCS(=O)(=O)CC5)c([N+](=O)[O-])c4)c(Oc4cnc5[nH]ccc5c4)c3)CC2)=C(c2ccc(Cl)cc2)C1 [Compound 81, 4-(4-{[2-(4-chlorophenyl)-4,4-dimethylcyclohex-1-en-1-yl]methyl}piperazin-1-yl)-N-({4-[(1,1-dioxidotetrahydro-2H-thiopyran-4-yl)amino]-3-nitrophenyl}sulfonyl)-2-(1H-pyrrolo[2,3-b]pyridin-5-yloxy)benzamide]	> 11.00
CC1(C)CCC(CN2CCN(c3ccc(C(=O)NS(=O)(=O)c4ccc(NC5CCN(C6CC6)CC5)c([N+](=O)[O-])c4)c(Oc4cnc5[nH]ccc5c4)c3)CC2)=C(c2ccc(Cl)cc2)C1 [Compound 98, 4-(4-{[2-(4-chlorophenyl)-4,4-dimethylcyclohex-1-en-1-yl]methyl}piperazin-1-yl)-N-({4-[(1-cyclopropylpiperidin-4-yl)amino]-3-nitrophenyl}sulfonyl)-2-(1H-pyrrolo[2,3-b]pyridin-5-yloxy)benzamide]	> 11.00
CCN1CCOCC1COc1ccc(S(=O)(=O)NC(=O)c2ccc(N3CCN(CC4=C(c5ccc(Cl)cc5)CC(C)(C)CC4)CC3)cc2Oc2cnc3[nH]ccc3c2)cc1[N+](=O)[O-] (stereo not shown) [Compound 103, 4-(4-{[2-(4-chlorophenyl)-4,4-dimethylcyclohex-1-en-1-yl]methyl}piperazin-1-yl)-N-({4-[(4-ethylmorpholin-3-yl)methoxy]-3-nitrophenyl}sulfonyl)-2-(1H-pyrrolo[2,3-b]pyridin-5-yloxy)benzamide]	> 11.00
CC1(C)CCC(CN2CCN(c3ccc(C(=O)NS(=O)(=O)c4ccc(N[C@H]5CCCN(C6CCOCC6)C5)c([N+](=O)[O-])c4)c(Oc4cnc5[nH]ccc5c4)c3)CC2)=C(c2ccc(Cl)cc2)C1 [Compound 105, 4-(4-{[2-(4-chlorophenyl)-4,4-dimethylcyclohex-1-en-1-yl]methyl}piperazin-1-yl)-N-[(3-nitro-4-{[(3S)-1-tetrahydro-2H-pyran-4-ylpiperidin-3-yl]amino}phenyl)sulfonyl]-2-(1H-pyrrolo[2,3-b]pyridin-5-yloxy)benzamide]	> 11.00
CC1(C)CCC(CN2CCN(c3ccc(C(=O)NS(=O)(=O)c4ccc(NN5CCS(=O)(=O)CC5)c([N+](=O)[O-])c4)c(Oc4cnc5[nH]ccc5c4)c3)CC2)=C(c2ccc(Cl)cc2)C1 [Compound 107, trans-4-(4-{[2-(4-chlorophenyl)-4,4-dimethylcyclohex-1-en-1-yl]methyl}piperazin-1-yl)-N-({4-[(1,1-dioxidothiomorpholin-4-yl)amino]-3-nitrophenyl}sulfonyl)-2-(1H-pyrrolo[2,3-b]pyridin-5-yloxy)benzamide]	10.46
CC1(C)CCC(CN2CCN(c3ccc(C(=O)NS(=O)(=O)c4ccc(NCC5(N)CCOCC5)c([N+](=O)[O-])c4)c(Oc4cnc5[nH]ccc5c4)c3)CC2)=C(c2ccc(Cl)cc2)C1 [Compound 108, N-[(4-{[(4-aminotetrahydro-2H-pyran-4-yl)methyl]amino}-3-nitrophenyl)sulfonyl]-4-(4-{[2-(4-chlorophenyl)-4,4-dimethylcyclohex-1-en-1-yl]methyl}piperazin-1-yl)-2-(1H-pyrrolo[2,3-b]pyridin-5-yloxy)benzamide]	> 11.00
CC1(C)CCC(CN2CCN(c3ccc(C(=O)NS(=O)(=O)c4ccc(N[C@H]5CC[C@@H](N6CCOCC6)C5)c([N+](=O)[O-])c4)c(Oc4cnc5[nH]ccc5c4)c3)CC2)=C(c2ccc(Cl)cc2)C1 [Compound 111, 4-(4-{[2-(4-chlorophenyl)-4,4-dimethylcyclohex-1-en-1-yl]methyl}piperazin-1-yl)-N-[(4-{[(1S,3R)-3-morpholin-4-ylcyclopentyl]amino}-3-nitrophenyl)sulfonyl]-2-(1H-pyrrolo[2,3-b]pyridin-5-yloxy)benzamide]	> 11.00
CC1(C)CCC(CN2CCN(c3ccc(C(=O)NS(=O)(=O)c4ccc(N[C@@H]5CC[C@H](N6CCOCC6)C5)c([N+](=O)[O-])c4)c(Oc4cnc5[nH]ccc5c4)c3)CC2)=C(c2ccc(Cl)cc2)C1 [Compound 112, 4-(4-{[2-(4-chlorophenyl)-4,4-dimethylcyclohex-1-en-1-yl]methyl}piperazin-1-yl)-N-[(4-{[(1R,3S)-3-morpholin-4-ylcyclopentyl]amino}-3-nitrophenyl)sulfonyl]-2-(1H-pyrrolo[2,3-b]pyridin-5-yloxy)benzamide]	> 11.00
CC1(C)CCC(CN2CCN(c3ccc(C(=O)NS(=O)(=O)c4ccc(NCC5CNCCO5)c([N+](=O)[O-])c4)c(Oc4cnc5[nH]ccc5c4)c3)CC2)=C(c2ccc(Cl)cc2)C1 (stereo not shown) [Compound 113, 4-(4-{[2-(4-chlorophenyl)-4,4-dimethylcyclohex-1-en-1-yl]methyl}piperazin-1-yl)-N-({4-[(morpholin-2-ylmethyl)amino]-3-nitrophenyl}sulfonyl)-2-(1H-pyrrolo[2,3-b]pyridin-5-yloxy)benzamide]	> 11.00
CC1(C)CCC(CN2CCN(c3ccc(C(=O)NS(=O)(=O)c4ccc(NCC5CCOC5)c([N+](=O)[O-])c4)c(Oc4cnc5[nH]ccc5c4)c3)CC2)=C(c2ccc(Cl)cc2)C1 (stereo not shown) [Compound 114, 4-(4-{[2-(4-chlorophenyl)-4,4-dimethylcyclohex-1-en-1-yl]methyl}piperazin-1-yl)-N-({3-nitro-4-[(tetrahydrofuran-3-ylmethyl)amino]phenyl}sulfonyl)-2-(1H-pyrrolo[2,3-b]pyridin-5-yloxy)benzamide]	> 11.00
